{
  "source": "patent US4540700A",
  "about": "“Treatment of diabetic complications with certain spiro-imidazolidine-diones” (Alcon Laboratories, Inc., priority 1984, dated 1985)",
  "key": {"Human Aldose Reductase": {"target": "Human Aldose Reductase (Homo sapiens, UniProt P15121)", "experiment": "Human Aldose Reductase Inhibition", "type": "biochemical", "settings": "for activity against human aldose reductase as compared to rat aldose reductase: human vs rat; for more active against human aldose reductase than the Sarges resolved compound: relative to Sarges resolved"}, "Rat Aldose Reductase": {"target": "Rat Aldose Reductase (Rattus norvegicus, UniProt P07943)", "experiment": "Rat Aldose Reductase Inhibition", "type": "biochemical", "text": "Biophysical Chemistry, 8 (1978) 81-85; P. F. Kador, L. O. Merola and J. H\nKinoshita Documenta Ophthamologica, 18 (1979) 117."}, "[1]": {"system": "nerve conduction velocities of the sciatic nerve", "experiment": "Nerve conduction study in diabetic rats", "type": "in vivo, male albino rats", "settings": "for nerve conduction velocity as a percent of normal, first inflection / nerve conduction velocity as a percent of normal, first peak / nerve conduction velocity as a percent of normal, second inflection / nerve conduction velocity as a percent of normal, second peak: 15 weeks", "protocol": "(§1) The purpose is to evaluate the efficacy of the racemic 2-fluoro compound (L), an aldose reductase inhibitor, for inhibiting cataractogenesis and nerve conduction deficit in diabetic rats.\n(§2) Diabetes was induced in male albino rats by the intravenous injection of 50 mg/kg streptozotocin. The diabetic state was verified by measuring the blood glucose level in each animal before and after injection. […] A fourth group consisted of non-diabetic and otherwise normal rats which remained untreated. Treatments were given once daily by oral […], and continued through the day prior to sacrifice of the animal.\n(§3) Each animal was weighed on a weekly basis. Both lenses of each animal were examined by ophthalmoscope periodically and any cataractous changes were graded and noted. At the end of 15 weeks, each animal was anesthetized using pentobarbital and the nerve conduction velocities of the sciatic nerve were measured. After an animal was sacrificed, the sciatic nerve and other tissues and organs were taken, weighed, and frozen for future biochemical analyses."}, "[2]": {"system": "cataractogenesis in diabetic rats", "experiment": "cataractous changes in streptozotocin diabetic rats", "type": "in vivo, male albino rats", "settings": "15 weeks", "protocol": "as §1, §2, §3\nCataractous changes were graded on a scale of 0 to 4; 0 denoting a normal looking lens with no changes and 4 denoting opacification involving the whole lens."}},
  "data": [
    {"smiles": "O=C1NC(=O)C2(N1)c1ccccc1-c1ccc(F)cc12", "note": "(racemic) [Compound L, dl-Spiro(2-fluorofluoren-9,4'-imidazolidine)-2',5'-dione]", "values": [
      {"measurement": "inhibition at 100 µM", "setting": "Human Aldose Reductase; 10^-4, human, read-out: In vitro Aldose Reductase Inhibition", "result": 100, "unit": "%"},
      {"measurement": "inhibition at 10 µM", "setting": "Human Aldose Reductase; 10^-5, human, read-out: In vitro Aldose Reductase Inhibition", "result": 88, "unit": "%"},
      {"measurement": "inhibition at 1 µM", "setting": "Human Aldose Reductase; 10^-6, human, read-out: In vitro Aldose Reductase Inhibition", "result": 81, "unit": "%"},
      {"measurement": "inhibition at 0.1 µM", "setting": "Human Aldose Reductase; 10^-7, human, read-out: In vitro Aldose Reductase Inhibition", "result": 53, "unit": "%"},
      {"measurement": "inhibition at 0.01 µM", "setting": "Human Aldose Reductase; 10^-8, human, read-out: In vitro Aldose Reductase Inhibition", "result": 18, "unit": "%"},
      {"measurement": "IC50", "setting": "Human Aldose Reductase; human", "result": 91, "unit": "nM"},
      {"measurement": "activity against human aldose reductase as compared to rat aldose reductase", "setting": "Human Aldose Reductase", "result": "as active or more active"},
      {"measurement": "more active against human aldose reductase than the Sarges resolved compound", "setting": "Human Aldose Reductase", "result": 7, "unit": "X"},
      {"measurement": "IC50", "setting": "Rat Aldose Reductase", "result": 150, "unit": "nM"},
      {"measurement": "nerve conduction velocity as a percent of normal, first inflection", "setting": "[1]; 8 mg/kg once daily oral", "result": 93.3, "unit": "%"},
      {"measurement": "nerve conduction velocity as a percent of normal, first peak", "setting": "[1]; 8 mg/kg once daily oral", "result": 88.2, "unit": "%"},
      {"measurement": "nerve conduction velocity as a percent of normal, second inflection", "setting": "[1]; 8 mg/kg once daily oral", "result": 87.4, "unit": "%"},
      {"measurement": "nerve conduction velocity as a percent of normal, second peak", "setting": "[1]; 8 mg/kg once daily oral", "result": 85.0, "unit": "%"},
      {"measurement": "statistical significance of improvement in nerve conduction", "setting": "[1]; 8 mg/kg, by comparison to the untreated diabetic rats", "result": "significant"},
      {"measurement": "prevention of lens opacification in diabetic rats", "setting": "[2]; 8 mg/kg once daily oral", "result": "effective in preventing opacification of the lens"}
    ]},
    {"smiles": "O=C1NC(=O)C2(CCOc3ccc(F)cc32)N1", "note": "(racemic) [Sarges Racemic, dl-spiro-(6-fluorochroman-4,4'-imidazolidine)-2',5'-dione, reference compound]", "values": [
      {"measurement": "nerve conduction velocity as a percent of normal, first inflection", "setting": "[1]; 16 mg/kg once daily oral", "result": 88.6, "unit": "%"},
      {"measurement": "nerve conduction velocity as a percent of normal, first peak", "setting": "[1]; 16 mg/kg once daily oral", "result": 83.9, "unit": "%"},
      {"measurement": "nerve conduction velocity as a percent of normal, second inflection", "setting": "[1]; 16 mg/kg once daily oral", "result": 82.4, "unit": "%"},
      {"measurement": "nerve conduction velocity as a percent of normal, second peak", "setting": "[1]; 16 mg/kg once daily oral", "result": 79.1, "unit": "%"},
      {"measurement": "prevention of lens opacification in diabetic rats", "setting": "[2]; 16 mg/kg once daily oral, 30 lenses", "result": "all appeared normal"}
    ]},
    {"smiles": "O=C1NC(=O)C2(N1)c1cc(F)ccc1-c1ccc(F)cc12", "note": "[M, Spiro-[2,7-difluorofluoren-9,4'-imidazolidine]-2',5'-dione]", "values": [
      {"measurement": "In vitro Aldose Reductase Inhibition", "setting": "Human Aldose Reductase; 10^-5, human", "result": 81},
      {"measurement": "In vitro Aldose Reductase Inhibition", "setting": "Human Aldose Reductase; 10^-6, human", "result": 71},
      {"measurement": "In vitro Aldose Reductase Inhibition", "setting": "Human Aldose Reductase; 10^-7, human", "result": 64},
      {"measurement": "In vitro Aldose Reductase Inhibition", "setting": "Human Aldose Reductase; 10^-8, human", "result": 35},
      {"measurement": "IC50", "setting": "Human Aldose Reductase; human", "result": 52, "unit": "nM"},
      {"measurement": "activity against human aldose reductase as compared to rat aldose reductase", "setting": "Human Aldose Reductase", "result": "as active or more active"},
      {"measurement": "more active against human aldose reductase than the Sarges resolved compound", "setting": "Human Aldose Reductase", "result": 12, "unit": "X"},
      {"measurement": "IC50", "setting": "Rat Aldose Reductase", "result": 44, "unit": "nM"}
    ]}
  ]
}
